Measurements taken from US20140256663A1, “Amphotericin Analogous Compounds and Pharmaceutical Compositions Containing Them” (CENTRO DE INVESTIGACION Y DE ESTUDIOS AVANZADOS DEL …, priority 2010, published 2014).
Converted amounts (≈) assume the structure as drawn. “Also recorded” adds a separate entry of the source. Like-named read-outs stand apart in the source and are kept apart here.

Key:
[1] = test system: Saccharomyces cerevisae FY833(SC) cells compared with human renal cells 293Q; conditions: FIG. 3
[2] = Unit channel studies in chicken egg lecithin bilayers with cholesterol
Procedure: The activity is determined by the presence of the different channels formed by polyenes in the lipid bilayer (Cotero, et al., supra; Venegas, et al., supra). […] These values were determined by the technique of unit channel delineated above.
(§1) Unit channel studies were performed according to procedures described earlier (Cotero, et al., supra, Venegas, et al., supra). Required liposomal suspensions were prepared using lecithin with cholesterol or ergosterol. These suspensions were placed in an ultrasonic bath for 15 minutes to produce unilamellar vesicles. Subsequently, the suspension was placed in a 100 μl eppendorf and a lipid bilayer was formed on the tip of a micro-electrode. The unit channels of amphotericin and of the invented compounds were incorporated to this bilayer. The unit channel current of the various compounds was recorded with an electrometer, and then these records were analyzed by determining the activity of the compounds and the characteristics of the channels formed.
(§2) The activity is determined by the presence of the various channels formed by polyenes in the lipid bilayer (Cotero, et al., supra, Venegas, et al., supra). […] This conductance is the effect of all the channels present and was determined by the unit channel technique earlier described.

[3] = test system: Saccharomyces cerevisae FY833(SC) cells; assay: Viability of Saccharomyces cerevisae FY833 (SC) cells at various concentrations; assay type: cell-based; conditions: FIG. 1, various concentrations; listed as amide 7
Procedure: All derivatives were tested for antibiotic activity in yeast cultures of S. cerevisiae.

[4] = comparison value, source not given; cited from earlier work
Candida albicans DSY294 = conditions: Carreira E.; cited from earlier work
[5] = Unit channel studies in chicken egg lecithin bilayers with ergosterol; conditions: AmB 2 μM; 30° C.
Procedure: as §1, §2

[6] = test system: Candida albicans ATCC 10231; assay: Antifungal activity in vitro by flow cytometry, Candida albicans ATCC 10231; assay type: cell-based; conditions: ATCC10231, 24 h at 37° C., read-out: CF50 Candida albicans ATCC 10231
Procedure: The antifungal activity of the polyene macrolide derivate of the present invention was determined by flow cytometry method earlier described (Pinto et al., J. Medical Microbiology, 2009; 58, 1454-1462; Pina-Vaz and Rodriguez, Methods Mol. Biol. 2010; 638:281-289). For the test two strains of Candida albicans (ATCC 10231 and 752) and Candida kruzei were used. A cellular suspension of 1×10^6 UFC/mL was used, which has sown in 96-well plates. […] As controls were used: untreated yeasts (control of living cells), yeasts exposed to UV radiation (arrest, inhibition of proliferation), and yeasts exposed at temperature of 100° C. (dead yeasts). Cells were collected by centrifugation at 10,000×g for 10 min, they were washed once in phosphate buffer. […] of propidium iodide 0.1 mg/mL were added to the cell suspension. It was incubated during 30 minutes at room temperature and protected from light. Finally, the samples were analyzed by flow cytometry (Becton-Dickinson Facsc Calibur, laser argon 480 nm). The intrinsic parameters and fluorescence in the FL2 channel (yellow/orange fluorescence) for FUN and channel FL3 (red fluorescence, filter 630 nm) for propidium iodide were acquired and registered on a logarithmic scale for a minimum of 7500 events per sample. For data analysis, the quadrants were adjusted in a plot of data lines of fluorescence intensity of samples. […] These quadrants were used to quantify the percentile of cells showing altered fluorescence compared to drug-free controls.

Candida albicans (10231) = conditions: Preobrazhenskaya M; cited from earlier work
physchem = conditions: DMSO, organic solvent or mixture
[7] = 10 μM AmB; from Venegas et al.; cited from earlier work
[8] = 200 μM compound, 30 mol % cholesterol, 27° C.

COC(=O)[C@@H](Cc1c[nH]c2ccccc12)NC(=O)[C@@H]1C(O)C[C@@]2(O)C[C@@H](O)C[C@@H](O)[C@H](O)CC[C@@H](O)C[C@@H](O)CC(=O)OC(C)C(C)[C@H](O)C(C)/C=C/C=C/C=C/C=C/C=C/C=C/C=C/[C@H](OC3OC(C)C(O)C(N)C3O)CC1O2 (stereo partly shown) [A-7, N-(D)-tryptophanamide of AmB]
advantage of selectivity over AmB (factor) [1]: 4 | Opening probability, channel type I [2, 8]: 14% | Opening probability, channel type II [2, 8]: 7% | Opening probability, channel type III [2, 8]: <1% | Opening probability, channel type IV [2, 8]: <1% | Opening probability, channel type V [2, 8]: <1% | Opening probability, channel type VI [2, 8]: N.O. | activity of transmembranal channels in the cholesterol membrane ([2]; in words, compared to AmB): more reduced activity of transmembranal channels | inhibitory capacity / potency on SC cells compared to AmB [3]: the most similar; also recorded: the highest power of the derivatives

C[C@@H]1[C@H](O)[C@@H](C)/C=C/C=C/C=C/C=C/C=C/C=C/C=C/[C@H](O[C@@H]2O[C@H](C)[C@@H](O)[C@H](N)[C@@H]2O)C[C@@H]2O[C@](O)(C[C@@H](O)C[C@@H](O)[C@H](O)CC[C@@H](O)C[C@@H](O)CC(=O)O[C@H]1C)C[C@H](O)[C@H]2C(=O)O [AmB, Amphotericin B]
solubility of AmB [4]: 10 µg/mL | MIC-Candida albicans DSY294 (Candida albicans DSY294): 0.4 µM (≈ 0.37 µg/mL) | Average conductance cholesterol ([2]; AmB 6 μM, 30° C.): 26.6 ± 9.9 fS | Average conductance ergosterol [5]: 600 ± 210 fS | IC50 [6]: 200 nM | MIC50-Candida albicans (10231) (Candida albicans (10231)): 0.11 µg/mL (≈ 0.119 µM) | solubility (physchem): ≤ 20 mM | Opening probability, channel type I [7]: 0.59% | Opening probability, channel type II [7]: 0.26% | Opening probability, channel type III [7]: 0.08% | Opening probability, channel type IV [7]: 4.06% | Opening probability, channel type V [7]: 1.81% | Opening probability, channel type VI [7]: 0.93%
